Literature values in article PMC7315836 (Journal of medicinal chemistry, 2020).
Like-named read-outs stand apart in the source and are kept apart here.

Experiments:
SARS-CoV [1] = tested on: SARS-CoV
MERS-CoV [2] = tested on: MERS-CoV
cathepsin L = cathepsin L inhibition assay
[3] = tested on: human aortic endothelial cells; conditions: 100 μM
TMPRSS2 = conditions: by inhibiting TMPRSS2 activity
SARS-CoV-2 [4] = tested on: SARS-CoV-2
SARS-CoV [5] = tested on: SARS-CoV; remark: listed apart in the source
HCoV-229E [6] = tested on: HCoV-229E
furin = conditions: HEK293 cells
ACE2 [7] = conditions: read-out: IC50, ACE2 catalytic activity
[8] = target: TACE (TNF-α converting enzyme); conditions: read-out: IC50, ACE2 shedding
[9] = acute toxicity, mice
MERS-CoV [10] = tested on: MERS-CoV; remark: listed apart in the source
MERS-CoV [11] = tested on: MERS-CoV; remark: listed apart in the source
ACE2 [12] = tested on: ACE2
ACE2 [13] = target: ACE2; remark: listed apart in the source
HCoV-229E [14] = conditions: HCoV-229E pseudovirus
[15] = tested on: SARS-CoV-2 S-mediated membrane fusion; conditions: fusion inhibitory assay
SARS-CoV-2 [16] = conditions: SARS-CoV-2 pseudovirus assay
MERS-CoV [17] = conditions: mouse, in vivo
[18] = not given; remark: listed apart in the source
HCoV-OC43 [19] = conditions: HCoV-OC43 pseudovirus
HCoV-NL63 = HCoV-NL63 pseudovirus
HCoV-OC43 [20] = conditions: 5 mg/kg
SARS-CoV [21] = tested on: SARS-CoV; remark: listed apart in the source

Compound: COc1ccc(S(=O)(=O)O)cc1/N=N/c1c(S(=O)(=O)O)cc2cc(Nc3nc(Nc4ccccc4)nc(Nc4cc(C)c(/N=N/c5cc(S(=O)(=O)O)cc6cc(S(=O)(=O)O)cc(O)c56)cc4OC)n3)ccc2c1O [ADS-J1 (15), ADS-J1]
- IC50 (SARS-CoV [1]): 3.89 µM
- IC50 (MERS-CoV [2]): 600 nM
- IC50 (coronaviruses): 600 to 3890 nM

Compound: CC(C)(C)OC(=O)N[C@@H](Cc1c[nH]c2ccccc12)C(=O)NNC(=O)OCC(=O)N1CCCc2ccccc21 [CID23631927 (19), CID 23631927]
- IC50 (cathepsin L): 6.9 nM
- toxicity [3]: did not show any sign of toxicity

Compound: CCc1ccccc1NC(=O)CSC(=O)NNC(=O)[C@H](Cc1c[nH]c2ccccc12)NC(=O)OC(C)(C)C [CID 16725315 (18), CID 16725315]
- IC50 (cathepsin L): 56 nM

Compound: CN(C)C(=O)COC(=O)Cc1ccc(OC(=O)c2ccc(NC(=N)N)cc2)cc1 [Camostat (22), Camostat]
- concentration preventing SARS-CoV infections (TMPRSS2): 10 µM
- viral entry of SARS-CoV-2 (SARS-CoV-2 [4]): could prevent the viral entry of SARS-CoV-2

Compound: CCN(CC)CCCC(C)Nc1ccnc2cc(Cl)ccc12 (stereo not shown) [Chloroquine (4), Chloroquine]
- ED50 (SARS-CoV [5]): 4.4 µM
- IC50 (coronaviruses): 1130 to 4400 nM
- toxicity that could be caused: ventricular arrhythmias,[72] QT prolongation,[72],[73] retinopathy,[74] and other cardiac-related toxicity

Compound: CCC[C@@H]([C@@H](CC(C)C)C(=O)N[C@@H](CCCCNC(=O)OCc1ccccc1)C(=O)Nc1nccs1)N(O)C=O [GW280264X (6), GW280264X]
- concentration reducing shedding of ACE2 (ADAM17): 1 nM

Compound: CCN(CCO)CCCC(C)Nc1ccnc2cc(Cl)ccc12 (stereo not shown) [Hydroxychloroquine (5), Hydroxychloroquine]
- toxicity that could be caused: ventricular arrhythmias,[72] QT prolongation,[72],[73] retinopathy,[74] and other cardiac-related toxicity

Compound: O=C(NC(Cc1ccccc1)C(=O)N1CCC(O)(c2ccc(Br)cc2)CC1)c1ccccc1 (stereo not shown) [K22 (2), K22]
- IC50 (HCoV-229E [6]): 700 nM

Compound: CN1CCN(C(=O)N[C@@H](Cc2ccccc2)C(=O)N[C@H](/C=C/S(=O)(=O)c2ccccc2)CCc2ccccc2)CC1 [K11777 (21), K11777]
- IC50 (coronaviruses): 0.68 to 46.1 nM

Compound: CC(C)(C)[C@H](NC(=O)[C@H](CCONC(=N)N)NC(=O)Cc1ccc(CNC(=N)N)cc1)C(=O)N[C@@H](CCONC(=N)N)C(=O)NCc1ccc(C(=N)N)cc1 [MI-1851 (24), MI-1851]
- proteolytic processing of SARS-CoV-2 S protein by endogenous furin (furin): could prevent proteolytic processing of the S protein

Compound: NCCNCCN1CC1 [NAAE (3), N-(2-amino-ethyl)-1 aziridine-ethanamine]
- IC50 (ACE2 [7]): 57 µM

Compound: CC(C)CC(CC(=O)NO)C(=O)NC(Cc1ccc2ccccc2c1)C(=O)NC(C)C(N)=O (stereo not shown) [TAPI-0 (7), TAPI-0]
- IC50 [8]: 100 nM

Compound: O=C(OC[C@H]1O[C@@H](OC(=O)c2cc(O)c(O)c(O)c2)[C@H](OC(=O)c2cc(O)c(O)c(O)c2)[C@H](OC(=O)c2cc(O)c(O)c(O)c2)[C@@H]1O)c1cc(O)c(O)c(O)c1 [TGG (12), TGG]
- 50% lethal dose [9]: ~ 456 mg/kg

Compound: Cc1nc(Nc2ncc(C(=O)Nc3c(C)cccc3Cl)s2)cc(N2CCN(CCO)CC2)n1 [dasatinib (29), dasatinib]
- IC50 (MERS-CoV [10]): 5.4 µM
- IC50 (coronaviruses): 2100 to 5400 nM

Compound: O=c1cc(-c2ccc(O)c(O)c2)oc2cc(O)cc(O)c12 [luteolin (13), luteolin]
- 50% lethal dose [9]: 232.2 mg/kg

Compound: CN1CCN(CCOc2cc(OC3CCOCC3)c3c(Nc4c(Cl)ccc5c4OCO5)ncnc3c2)CC1 [saracatinib (30), saracatinib]
- IC50 (MERS-CoV [11]): 2900 nM
- IC50 (coronaviruses): 2400 to 5100 nM

Compound: DX600
- stability (ACE2 [12]): chemically stable and not hydrolyzable by ACE2
- Ki (ACE2 [13]): 2.8 nM
- inhibition of ACE activity (ACE): did not inhibit ACE activity

Compound: EK1
- IC50 (HCoV-229E [14]): 3.35 µM
- IC50 [15]: 190 nM
- IC50 (SARS-CoV-2 [16]): 2380 nM
- protection of mice against MERS-CoV infection (MERS-CoV [17]): nearly completely protected
- cytotoxic concentration (not cytotoxic up to) [18]: > 1 mM
- IC50 (HCoV-OC43 [19]): 1810 nM
- IC50 (HCoV-NL63): 6.02 µM
- protection of mice from HCoV-OC43 (HCoV-OC43 [20]): nearly completely protected

Compound: MDL28170 [MDL28170 (17)]
- EC50 (SARS-CoV [21]): ~100 nM

Compound: Teicoplanin
- IC50 (SARS-CoV-2 pseudoviruses): 1660 nM
